Experimental data published in patent US7375243B2, “Method for preparation of amino acid chelate” (MD Bioalpha Co., Ltd., priority 2002, dated 2008).

Assays:
[1] = system: calcium-starved rats; test: Test of the degree of absorption of Ca-supplying agents in calcium-starved rats; conditions: for Length of fibula / Weight of fibula: Ca-starved rats, Ca-supplying agent orally for one week with Ca-free diet
Experimental: 3-week old Sprague-Dawley male rats (Daehan Biolink Co., Ltd., Korea) were employed for the present experiment after adjustment to an elementary diet These rats were divided into a normal group and an experimental group. The diet for the normal group (“normal diet”) was prepared based upon AIN-76 diet composition, whereas the diet for the experimental group (“Ca-flee diet” or “experimental diet”) was prepared by replacing a mineral mixture in the normal diet composition with a Ca deficient mineral mixture. […] These Ca-supplying agents were orally administered to each group along with the Ca-free diet for one week before the rats were sacrificed.
The concentration of Ca-supplying agent in the oral administration was ⅓ of the concentration of calcium in AIN-76 mineral mixture, which corresponds to 10 times the recommended amount for adult males. 3× distilled water was used for preparation of the experimental diet and was also was fed to rats for maintenance. The compositions of diets administered to the normal group and experimental groups, respectively, are described in TABLE 8 as below.
The abdomens of the rats were cut open under ether anesthesia, then blood was harvested from abdominal aorta, and major organs such as liver, kidney, spleen, etc. were […], followed by the extraction of fibula. The blood was centrifuged at 3000 rpm for 10 minutes to separate serum. Each organ and bone was trimmed and washed with normal saline and moisture on the surface thereof was removed to measure the weight and length thereof.
The content of calcium in serum and urine was measured by Calcium Reagent Arsenazo III kit (Sigma Corp., U.S.A). In order to measure the content of calcium in feces, the feces (sample) was put in a Pyrex beaker and the weight thereof was measured to 0.1 mg unit, then 5 ml of HNO3 and 2 ml of H2O2 were added and the beaker was left uncovered on a hot plate. The acid-digested sample was cooled and 2 ml of H2O2 was added thereto, followed by heating. Next, the acid was sufficiently volatilized to make the concentration of HNO3 to 1-5%, followed by the analysis with ICP-AES (inductively Coupled Plasma Atomic Emission Spectrometer). The condition for analysis is given below. • Model: Jobin Yvon 138 Ultrace • Source: Argon plasma (6000 K) • Spectral range: 160-800 nm • Resolution: 0.005 nm (UV) • Detection limit: 1×ppb˜100×ppb • Wavelength for analysis: 393.366 nm 3. Effect On Weight of Major Organs

[2] = system: Fe-starved rats; test: Effect of Fe-supplying agents on the absorption of Fe in Fe-starved rats
Experimental: 3-week old Sprague-Dawley male rats (Daehan Biolink Co., Ltd., Korea) were employed for the present experiment after application of an elementary diet for one week. These rats were divided into a normal group and an experimental group. The diet for the normal group (“normal diet”) was prepared based upon AIN-76 diet composition, whereas the diet for the experimental group (“Fe-free diet” or “experimental diet”) was prepared by replacing a mineral mixture in the normal diet composition with a Fe-deficient mineral mixture. […] These Fe-supplying agents were orally administered to rats along with the experimental diet for one week before the rats were sacrificed.
The concentration of Fe-supplying agent for the oral administration was 10 times the recommended amount for adult males. 3× distilled water was used for preparation of the experimental diet and was fed to rats for maintenance. The compositions of diets administered to the normal group and experimental group, respectively, are described in TABLE 14 below.
Rats were adapted to a cage for one week before the start of the experiment, and their feces were collected for a final 3 days. On the final day, the abdomen was cut open under ether anesthesia, then blood was harvested from abdominal aorta, and major organs such as liver, kidney, spleen, etc. were extracted. […] Each organ was trimmed and washed with normal saline, then moisture on the surface thereof was removed to measure the weight and length.
CBC (Complete Blood Count: Red blood cell; RBC, white blood cell; WBC, Hematocrits; HCT, Hemoglobin; Hb) was measured from the anticoagulated blood, and IRON and TIBC Total Iron Binding Capacity) were measured from the blood serum. CBC was measured by an automatic analyzer (ADVIA 120, Bayer, U.S.A). As reagents, Isoton III (Beckman Coulter, U.S.A), Coulter clenz (Beckman Coulter), Lyse S III (Beckman Coulter), 4% sodium hypochloride-solution (Beckman Coulter) and 4C-plus (Beckman Coulter), Scatter Pak (Beckman Coulter) were used.
All data obtained in the present experiment were expressed with the mean standard error using the SAS program. T-test in each group was carried out at a range of P<0.05 by Duncan's multiple comparison test.

[3] = Stability of amino acid chelate on storage in aqueous solutions; format: physicochemical; conditions: distilled water and buffer at pH 3, 5, 7, 9, commercial beverages, cosmetics, ALGI; stored at 4, 25 and 50° C. for 3 months
Experimental: The following experiment was carried out to ascertain the stability of amino acid chelate compound, obtained in EXAMPLE 1, on its storage in an aqueous solution for a long time.
• 1) preparation of samples by adding the above amino acid chelate compound into distilled water adjusted to pH 3, 5, 7 and 9, respectively. • 2) preparation of samples by adding the above amino acid chelate compound into solutions adjusted to pH 3, 5, 7 and 9 using buffer, respectively. • 3) preparation of samples by adding the above amino acid chelate compound into selected commercially available beverages (MIEROFIBER® (Hyundai Pharm., Korea), BACCHUS® (Donga Pharm., Korea) and orange juice (HaeTae Beverage Corp., Korea)), respectively. • 4) preparation of samples by adding the above amino acid chelate compound into selected commercially available cosmetics (ISA KNOX® (LG Chemical Corp., Korea), MAMONDE® (AmorePacific Corp., Korea)) • 5) preparation of samples by adding the above amino acid chelate compound into ALGI® (GG Tech. Co. Ltd., Korea) as a plant growth-accelerating agent
The above samples were stored at 4, 25 and 50° C., respectively, and then tested for any precipitation or change in pH. […]

[4] = Fe-starved rats, oral for one week

| Compound | Concentration of calcium in serum ([1]; rat, in vivo, po) [mg/dL] | Concentration of calcium in urine ([1]; rat, in vivo, po) [mg/dL] | Kidney weight ([1]; rat, in vivo, po) [mg/BW] | Spleen weight ([1]; rat, in vivo, po) [mg/BW] | Length of fibula [1] [mm] | Weight of fibula [1] [g] | RBC [2, 4] | TIBC (total iron binding capacity) in serum [2, 4] [µg/dL] | WBC [2, 4] | further results |
| --- | --- | --- | --- | --- | --- | --- | --- | --- | --- | --- |
| Heme iron |  |  |  |  |  |  | 7.01 ± 0.16 ×10^6/mm^3 | 824.63 ± 11.60 | 6.12 ± 0.37 ×10^3/mm^3 | HCT [2, 4]: 36.11 ± 0.89%; TS (transferrin saturation) [2, 4]: 17.07%; IRON in serum ([2]; rat, in vivo, po): 140.8. ± 25.55 μg/dl; Kidney weight ([2]; rat, in vivo, po): 7.20 ± 0.13 mg/BW; Spleen weight ([2]; rat, in vivo, po): 2.78 ± 0.15 mg/BW |
| Seaweed Calcium-Glutamic Acid Chelate [EXAMPLE 1] |  |  |  |  |  |  |  |  |  | precipitation or change in pH [3]: no precipitation or remarkable change in pH |
| calcium-aspartic acid chelate [Asp-Ca] |  |  |  |  | 30.88 ± 1.87 | 0.327 ± 0.031 |  |  |  |  |
| iron-aspartic acid chelate [Fe-Asp] |  |  |  |  |  |  | 7.32 ± 0.35 ×10^6/mm^3 | 735.44 ± 9.30 | 6.02 ± 0.46 ×10^3/mm^3 |  |

Second part, led by results:

| Concentration of calcium in serum ([1]; rat, in vivo, po) [mg/dL] | Concentration of calcium in urine ([1]; rat, in vivo, po) [mg/dL] | Kidney weight ([1]; rat, in vivo, po) [mg/BW] | Spleen weight ([1]; rat, in vivo, po) [mg/BW] | Compound | Length of fibula [1] [mm] | Weight of fibula [1] [g] | RBC [2, 4] | TIBC (total iron binding capacity) in serum [2, 4] [µg/dL] | WBC [2, 4] | further results |
| --- | --- | --- | --- | --- | --- | --- | --- | --- | --- | --- |
| 9.13 ± 0.21 | 0.22 ± 0.01 | 8.60 ± 0.40 | 3.00 ± 0.00 | O=C([O-])[O-].[Ca+2] [CaCO3] | 30.03 ± 1.10 | 0.332 ± 0.033 |  |  |  | Concentration of serum-calcium in blood collected from eyeball ([1]; rat, in vivo, po): 8.52 ± 0.27 mg/dL |
| 10.44 ± 0.07 | 0.32 ± 0.02 | 8.20 ± 0.20 | 3.00 ± 0.32 | seaweed calcium [SW-Ca] |  |  |  |  |  |  |
